Results taken from patent US9856232B1, “Dihydropyrimidinone derivatives” (KING SAUD UNIVERSITY, priority 2017, dated 2018).
Marks after values point to notes of the source that are not given here.

Experiments:
[1] = tested on: malondialdehyde in stomach tissue, induced by 80% ethanol; assay: Determination of malondialdehyde (MDA); format: in vivo, Albino Wistar rats; conditions: mean ± SE
Method: (§1) Albino Wistar rats of either sex, approximately the same age, weighing 150 to 200 g and fed on a diet of standard chow were used in this study. They were randomly divided into experimental groups of six rats each. Compounds (N-1 to N-18) 12.5, 25, and 50 mg/kg were given orally in the anti-ulcer studies and intraperitoneally for gastric secretion evaluation. The rats were sacrificed, and the stomachs removed and opened along the greater curvature, After washing with saline, the gastric lesions were quantified by a person unaware of the treatments. The animal study protocol was approved by the Research and Ethics Committee of the Experimental Animal Care Society, College of Pharmacy, King Saud University, Riyadh, Saudi Arabia.
Determination of malondialdehyde (MDA): The animals were sacrificed 1 hour after ethanol administration. The stomachs were removed and each was homogenized in 0.15 mol/L KCl (at 4° C.) in a Potter-Elvehjem type C homogenizer to give a 10% w/v homogenate. Aliquots of homogenate 1 mL in volume were incubated at 37° C. for 3 hours in a metabolic shaker. Then 1 mL of 10% aqueous TCA was added and mixed. The mixture was then centrifuged at 800 g for 10 minutes. One milliliter of the supernatant was removed and mixed with 1 mL of 0.67% w/v thiobarbituric acid in water and placed in a boiling water bath for 10 minutes. The mixture was cooled and diluted with 1 mL distilled water. The absorbance of the solution was then read at 535 nm. The content of malondialdehyde (nmol/g wet tissue) (index of the magnitude of lipid peroxidation) was then calculated, by reference to a standard curve of malondialdehyde solution. Table 7 provides the effect of compounds on the levels of MDA, NP_SH, and total protein in stomach tissue induced by 80% ethanol (mean±SE).

[2] = tested on: gastric secretion in pylorus-ligated Shay rats; assay: Pylorus-ligated rats: gastric secretion, acidity and lesion index; format: in vivo, Albino Wistar rats; design: Ulcer Index, pylorus-ligated Shay rats: scale not given here; conditions: i.p., 6 h after pylorus ligation, mean ± SE
Method: as §1
Pylorus-ligated rats: Rats were fasted for 36 hours with access to water ad libitum before pylorus ligation under ether anesthesia was carried out. Care was taken not to cause bleeding or to occlude blood vessels. Compounds (N-3, N-8, N-11, and N-15) were administered intraperitoneally immediately after pylorus ligation. The rats were sacrificed at 6 hours after pylorus ligation. The stomachs were removed, the contents were collected, volumes measured, centrifuged and analyzed for tritratable acidity against […], NaOH at pH 7.0. Table 5 provides the effect of compounds on gastric secretion, acidity, and gastric lesion index in pylorus-ligated Shay rats (mean±SE).

[3] = tested on: Indomethacin-induced gastric mucosal lesions; assay: Gastric lesions induced by Indomethacin; format: in vivo, Albino Wistar rats; design: scale not given here; conditions: i.p, 30 min before Indomethacin 30 mg/kg, mean ± SE
Text: as §1, with “Compounds (N-1 to N-18) 12.5, 25, and 50 mg/kg were given orally in the anti-ulcer studies and intraperitoneally for gastric secretion evaluation.” left out
Gastric lesions induced by Indomethacin: Indomethacin was suspended in 1.0% carboxymethylcellulose (CMC) in water (6 mg/mL) and administered orally to the 36 hour fasted rats at a dose of 30 mg/kg body weight. Control rats were treated similarly with an equivalent amount of vehicle. […] The animals were sacrificed 6 hours after treatment. The stomachs were excised, rinsed with normal saline and examined for ulceration. Table 3 provides the effect of compounds on Indomethacin-induced gastric mucosal lesions (mean±SE).

[4] = dose 12.5, 80% ethanol-treated rats
[5] = dose 25, 80% ethanol-treated rats
[6] = dose 50, 80% ethanol-treated rats

melting point [°C]	SMILES	MDA [1, 4]	MDA [1, 5]	MDA [1, 6]	Titratable Acidity ([2]; 12.5 mg/kg) [mEg/L]	Ulcer Index, pylorus-ligated Shay rats ([2]; 12.5 mg/kg)	Volume of Gastric Content ([2]; 12.5 mg/kg) [mL]	Titratable Acidity ([2]; 25 mg/kg) [mEg/L]	Ulcer Index, pylorus-ligated Shay rats ([2]; 25 mg/kg)	Volume of Gastric Content ([2]; 25 mg/kg) [mL]	Titratable Acidity ([2]; 50 mg/kg) [mEg/L]	Ulcer Index, pylorus-ligated Shay rats ([2]; 50 mg/kg)	Volume of Gastric Content ([2]; 50 mg/kg) [mL]	Ulcer Index, indomethacin-induced gastric mucosal lesions ([3]; 12.5 mg/kg)	Ulcer Index, indomethacin-induced gastric mucosal lesions ([3]; 25 mg/kg)	Ulcer Index, indomethacin-induced gastric mucosal lesions ([3]; 50 mg/kg)
185 to 187	CN(C)c1ccc(C2NC(=O)NC=C2C(=O)c2ccc(N3CCCCC3)cc2)cc1 (stereo not drawn) [Compound N-11, 4-(4-Dimethylaminophenyl)-5-[4-(piperidin-1-yl)benzoyl]-3,4-dihydropyrimidin-2(1H)-one]	5.16 ± 0.22***^b nmol/g	3.99 ± 0.17***^b nmol/g	3.36 ± 0.08***^b nmol/g	160.55 ± 3.48	2.83 ± 0.30	10.20 ± 0.29	141.11 ± 6.30	2.50 ± 0.42	7.35 ± 0.19	116.66 ± 4.63	2.33 ± 0.71	6.63 ± 0.21	33.00 ± 1.03	30.66 ± 1.28	28.31 ± 1.78
–	O=C1NC=C(C(=O)c2ccc(N3CCCCC3)cc2)C(c2ccc([N+](=O)[O-])cc2)N1 (stereo not drawn) [Compound N-3, 4-(4-Nitrophenyl)-5-[4-(piperidin-1-yl)benzoyl]-3,4-dihyropyrimidin-2(1H)-one]	4.47 ± 0.44***^b nmol/g	3.07 ± 0.16***^b nmol/g	1.95 ± 0.05***^b nmol/g	153.88 ± 5.40	2.33 ± 0.33	9.03 ± 0.24	97.77 ± 2.93	1.83 ± 0.304	6.31 ± 0.25	84.84 ± 2.38	1.16 ± 0.30	4.63 ± 0.22	29.83 ± 1.66	20.50 ± 1.52	12.66 ± 1.28
–	COc1ccccc1C1NC(=O)NC=C1C(=O)c1ccc(N2CCCCC2)cc1 (stereo not drawn) [Compound N-8, 4-(2-Methoxyphenyl)-5-[4-(piperidin-1-yl)benzoyl]-3,4-dihydropyrimidin-2(1H)-one]	6.63 ± 0.26^b nmol/g	4.83 ± 0.24***^b nmol/g	3.75 ± 0.07***^b nmol/g	161.11 ± 4.36	3.16 ± 0.30	10.50 ± 0.34	133.33 ± 3.22	2.50 ± 0.22	9.36 ± 1.22	115.00 ± 5.75	2.00 ± 0.13	6.46 ± 0.16	33.00 ± 1.52	29.50 ± 1.58	28.66 ± 1.45
–	COc1ccc(C2NC(=O)NC=C2C(=O)c2ccc(N3CCCCC3)cc2)c(OC)c1OC (stereo not drawn) [Compound N-15, 4-(2,3,4-Trimethoxyphenyl)-5-[4-(piperidin-1-yl)benzoyl]-3,4-dihydropyrimidin-2(1H)-one]	3.51 ± 0.08***^b nmol/g	2.72 ± 0.10***^b nmol/g	1.90 ± 0.06***^b nmol/g	116.11 ± 2.64	1.83 ± 0.304	6.68 ± 0.18	86.11 ± 3.98	1.50 ± 0.22	5.50 ± 0.24	73.33 ± 2.43	1.00 ± 0.36	4.76 ± 0.23	26.33 ± 1.30	–	14.50 ± 1.64
